Experiments:
Test in all cases: β-arrestin based GPCR screen (PathHunter / GPCRmax), agonist mode
Type in all cases: cell-based
Design in all cases: host or cells: PathHunter cell lines
168 GPCRs [1] = biological target: 168 GPCRs (Homo sapiens, UniProt P41968); settings: MC3R
Experimental: (§1) For agonist determination, cells were incubated with sample to induce response. […] Vehicle concentration was 1%.

168 GPCRs [2] = biological target: 168 GPCRs (Homo sapiens, UniProt P08908); settings: HTR1A
168 GPCRs (Homo sapiens, UniProt P08908), sequence (P08908 whole entry): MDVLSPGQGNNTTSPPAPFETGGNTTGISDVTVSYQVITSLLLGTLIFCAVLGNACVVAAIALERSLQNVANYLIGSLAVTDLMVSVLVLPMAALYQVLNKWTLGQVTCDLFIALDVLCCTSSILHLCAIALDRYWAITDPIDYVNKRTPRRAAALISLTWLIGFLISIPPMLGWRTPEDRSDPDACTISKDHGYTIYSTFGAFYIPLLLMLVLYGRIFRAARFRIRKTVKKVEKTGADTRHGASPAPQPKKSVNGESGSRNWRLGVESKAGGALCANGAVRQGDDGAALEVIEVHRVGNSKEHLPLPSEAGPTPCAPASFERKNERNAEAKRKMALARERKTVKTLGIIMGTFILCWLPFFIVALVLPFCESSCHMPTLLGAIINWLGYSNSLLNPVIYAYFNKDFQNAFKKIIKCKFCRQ
Experimental: as §1

168 GPCRs [3] = biological target: 168 GPCRs (Homo sapiens, UniProt O14842)
168 GPCRs (Homo sapiens, UniProt O14842), sequence (O14842 whole entry): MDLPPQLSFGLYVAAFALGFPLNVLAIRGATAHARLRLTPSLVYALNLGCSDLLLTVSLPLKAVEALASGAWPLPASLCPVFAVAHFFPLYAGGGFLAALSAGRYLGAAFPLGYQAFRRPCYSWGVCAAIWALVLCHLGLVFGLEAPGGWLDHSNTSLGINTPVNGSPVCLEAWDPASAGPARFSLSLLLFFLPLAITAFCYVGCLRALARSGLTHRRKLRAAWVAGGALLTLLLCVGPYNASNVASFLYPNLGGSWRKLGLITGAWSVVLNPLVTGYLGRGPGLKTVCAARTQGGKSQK
Experimental: as §1

168 GPCRs [4] = biological target: 168 GPCRs (Homo sapiens, UniProt P25116); settings: F2R
168 GPCRs (Homo sapiens, UniProt P25116), sequence (P25116 22-425): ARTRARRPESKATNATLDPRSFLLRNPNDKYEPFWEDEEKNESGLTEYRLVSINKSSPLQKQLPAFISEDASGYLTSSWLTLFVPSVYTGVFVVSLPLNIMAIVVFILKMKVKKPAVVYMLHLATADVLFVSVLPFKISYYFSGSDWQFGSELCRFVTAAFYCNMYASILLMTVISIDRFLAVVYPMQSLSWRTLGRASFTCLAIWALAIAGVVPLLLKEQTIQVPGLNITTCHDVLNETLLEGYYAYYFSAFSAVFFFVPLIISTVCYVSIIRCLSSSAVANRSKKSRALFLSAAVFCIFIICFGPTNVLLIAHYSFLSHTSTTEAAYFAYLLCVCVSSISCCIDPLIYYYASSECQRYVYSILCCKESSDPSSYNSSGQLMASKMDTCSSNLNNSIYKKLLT
Experimental: as §1

168 GPCRs [5] = biological target: T1, 168 GPCRs (Homo sapiens, UniProt P08173); settings: CHRM4, Agonist
T1 sequence (P08173 1-479): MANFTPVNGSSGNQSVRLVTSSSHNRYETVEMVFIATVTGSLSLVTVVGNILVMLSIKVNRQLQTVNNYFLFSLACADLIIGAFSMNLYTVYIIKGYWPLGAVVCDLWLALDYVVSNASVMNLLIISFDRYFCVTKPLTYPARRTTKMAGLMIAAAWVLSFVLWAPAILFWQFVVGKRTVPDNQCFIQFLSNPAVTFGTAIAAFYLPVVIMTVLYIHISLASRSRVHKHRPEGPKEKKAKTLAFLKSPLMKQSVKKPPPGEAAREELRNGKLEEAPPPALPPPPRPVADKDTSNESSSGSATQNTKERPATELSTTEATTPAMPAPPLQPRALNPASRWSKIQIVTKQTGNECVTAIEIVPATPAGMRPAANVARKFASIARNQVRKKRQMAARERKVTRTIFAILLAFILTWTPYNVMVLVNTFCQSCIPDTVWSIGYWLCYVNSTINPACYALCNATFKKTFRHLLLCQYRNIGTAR
Experimental: as §1

168 GPCRs [6] = biological target: 168 GPCRs (Homo sapiens, UniProt P41231)
168 GPCRs (Homo sapiens, UniProt P41231), sequence (P41231 whole entry): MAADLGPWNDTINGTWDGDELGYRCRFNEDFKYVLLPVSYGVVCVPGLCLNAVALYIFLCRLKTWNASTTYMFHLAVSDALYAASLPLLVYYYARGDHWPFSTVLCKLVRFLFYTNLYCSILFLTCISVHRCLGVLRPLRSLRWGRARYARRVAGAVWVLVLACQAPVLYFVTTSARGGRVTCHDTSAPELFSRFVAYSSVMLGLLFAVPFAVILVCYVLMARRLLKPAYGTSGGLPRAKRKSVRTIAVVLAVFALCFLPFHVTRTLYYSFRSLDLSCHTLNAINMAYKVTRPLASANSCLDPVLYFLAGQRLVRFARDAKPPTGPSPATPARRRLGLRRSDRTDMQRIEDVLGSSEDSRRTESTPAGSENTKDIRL
Experimental: as §1

168 GPCRs [7] = biological target: 168 GPCRs (Homo sapiens, UniProt P51582)
Experimental: as §1

168 GPCRs [8] = biological target: 168 GPCRs (Homo sapiens, UniProt Q8TDV5)
168 GPCRs (Homo sapiens, UniProt Q8TDV5), sequence (Q8TDV5 whole entry): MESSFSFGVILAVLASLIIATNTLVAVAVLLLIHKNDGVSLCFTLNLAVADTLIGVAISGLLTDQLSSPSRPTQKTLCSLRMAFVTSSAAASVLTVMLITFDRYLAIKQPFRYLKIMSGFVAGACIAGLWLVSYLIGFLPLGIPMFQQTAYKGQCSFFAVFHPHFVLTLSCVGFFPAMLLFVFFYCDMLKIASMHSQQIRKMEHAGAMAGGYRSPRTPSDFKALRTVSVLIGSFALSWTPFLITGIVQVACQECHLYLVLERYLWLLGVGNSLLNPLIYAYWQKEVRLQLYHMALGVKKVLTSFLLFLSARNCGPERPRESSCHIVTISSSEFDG
Experimental: as §1

168 GPCRs [9] = biological target: 168 GPCRs (Homo sapiens, UniProt P16473); settings: TSHR(L)
168 GPCRs (Homo sapiens, UniProt P16473), sequence (P16473 21-764): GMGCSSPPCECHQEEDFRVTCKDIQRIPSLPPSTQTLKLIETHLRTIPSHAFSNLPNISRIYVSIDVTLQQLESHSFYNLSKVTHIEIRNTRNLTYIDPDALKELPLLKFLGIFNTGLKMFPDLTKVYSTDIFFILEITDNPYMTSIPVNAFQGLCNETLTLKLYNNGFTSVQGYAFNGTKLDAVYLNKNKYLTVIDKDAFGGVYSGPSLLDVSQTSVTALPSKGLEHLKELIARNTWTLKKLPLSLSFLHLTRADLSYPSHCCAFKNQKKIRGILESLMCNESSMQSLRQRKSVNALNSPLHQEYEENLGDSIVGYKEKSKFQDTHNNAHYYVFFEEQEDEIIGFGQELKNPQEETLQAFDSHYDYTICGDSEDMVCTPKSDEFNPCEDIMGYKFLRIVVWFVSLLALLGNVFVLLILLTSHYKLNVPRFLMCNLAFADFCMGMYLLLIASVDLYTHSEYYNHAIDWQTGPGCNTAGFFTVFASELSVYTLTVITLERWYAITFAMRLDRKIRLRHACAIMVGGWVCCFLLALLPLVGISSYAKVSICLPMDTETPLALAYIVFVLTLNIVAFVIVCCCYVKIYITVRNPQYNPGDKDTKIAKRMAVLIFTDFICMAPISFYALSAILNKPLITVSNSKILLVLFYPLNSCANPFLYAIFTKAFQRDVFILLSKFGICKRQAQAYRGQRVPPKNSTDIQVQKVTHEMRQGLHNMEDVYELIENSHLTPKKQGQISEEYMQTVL
Experimental: as §1

168 GPCRs [10] = biological target: 168 GPCRs (Homo sapiens, UniProt P51677); settings: CCR3, Agonist
168 GPCRs (Homo sapiens, UniProt P51677), sequence (P51677 whole entry): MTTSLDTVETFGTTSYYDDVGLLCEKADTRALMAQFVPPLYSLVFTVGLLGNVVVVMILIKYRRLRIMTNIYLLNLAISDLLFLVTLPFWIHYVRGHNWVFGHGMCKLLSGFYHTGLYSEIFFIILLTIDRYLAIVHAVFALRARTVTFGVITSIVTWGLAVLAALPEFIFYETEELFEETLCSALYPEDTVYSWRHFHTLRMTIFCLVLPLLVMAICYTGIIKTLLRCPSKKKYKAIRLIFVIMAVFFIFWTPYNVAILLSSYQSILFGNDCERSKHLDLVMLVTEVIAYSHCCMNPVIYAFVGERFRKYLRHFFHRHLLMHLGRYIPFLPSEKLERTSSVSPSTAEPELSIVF
Experimental: as §1

168 GPCRs [11] = biological target: 168 GPCRs (Homo sapiens, UniProt P14416); settings: DRD2L
Experimental: as §1

168 GPCRs [12] = biological target: T2, 168 GPCRs (Homo sapiens, UniProt P30939); settings: HTR1F
T2 sequence (P30939 1-366): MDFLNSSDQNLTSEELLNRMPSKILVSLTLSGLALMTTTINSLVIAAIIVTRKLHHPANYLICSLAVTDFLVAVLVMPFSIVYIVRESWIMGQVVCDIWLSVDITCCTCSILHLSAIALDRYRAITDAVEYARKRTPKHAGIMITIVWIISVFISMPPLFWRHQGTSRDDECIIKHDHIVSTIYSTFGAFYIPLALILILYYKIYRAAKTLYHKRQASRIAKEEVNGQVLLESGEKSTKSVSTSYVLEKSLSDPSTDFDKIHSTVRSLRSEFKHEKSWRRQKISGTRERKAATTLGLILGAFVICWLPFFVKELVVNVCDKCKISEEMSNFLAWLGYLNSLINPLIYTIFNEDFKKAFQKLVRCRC
Experimental: as §1

168 GPCRs [13] = biological target: 168 GPCRs (Homo sapiens, UniProt Q13324)
168 GPCRs (Homo sapiens, UniProt Q13324), sequence (Q13324 whole entry): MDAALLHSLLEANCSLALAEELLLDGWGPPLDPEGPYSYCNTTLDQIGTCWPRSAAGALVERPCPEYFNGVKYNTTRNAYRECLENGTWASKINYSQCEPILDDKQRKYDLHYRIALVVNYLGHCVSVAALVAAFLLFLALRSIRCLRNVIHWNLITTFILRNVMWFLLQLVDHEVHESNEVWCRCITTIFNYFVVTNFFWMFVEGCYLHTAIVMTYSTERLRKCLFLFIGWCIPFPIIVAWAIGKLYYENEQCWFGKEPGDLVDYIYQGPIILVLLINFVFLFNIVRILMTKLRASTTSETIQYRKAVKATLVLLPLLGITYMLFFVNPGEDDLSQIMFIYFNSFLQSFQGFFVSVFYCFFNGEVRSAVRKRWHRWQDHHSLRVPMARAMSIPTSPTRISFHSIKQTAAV
Experimental: as §1

168 GPCRs [14] = biological target: 168 GPCRs (Homo sapiens, UniProt Q99705)
168 GPCRs (Homo sapiens, UniProt Q99705), sequence (Q99705 whole entry): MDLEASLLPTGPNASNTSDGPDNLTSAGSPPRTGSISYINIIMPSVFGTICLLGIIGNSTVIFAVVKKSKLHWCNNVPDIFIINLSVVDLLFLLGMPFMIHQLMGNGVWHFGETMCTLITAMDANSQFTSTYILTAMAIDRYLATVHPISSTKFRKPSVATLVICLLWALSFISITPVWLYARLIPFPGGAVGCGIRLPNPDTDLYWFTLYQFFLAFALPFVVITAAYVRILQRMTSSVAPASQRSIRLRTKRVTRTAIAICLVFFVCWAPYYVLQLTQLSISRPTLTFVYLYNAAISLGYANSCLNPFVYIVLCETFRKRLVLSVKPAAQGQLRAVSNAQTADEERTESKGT
Experimental: as §1

168 GPCRs [15] = biological target: 168 GPCRs (Homo sapiens, UniProt Q92847); settings: GHSR
168 GPCRs (Homo sapiens, UniProt Q92847), sequence (Q92847 whole entry): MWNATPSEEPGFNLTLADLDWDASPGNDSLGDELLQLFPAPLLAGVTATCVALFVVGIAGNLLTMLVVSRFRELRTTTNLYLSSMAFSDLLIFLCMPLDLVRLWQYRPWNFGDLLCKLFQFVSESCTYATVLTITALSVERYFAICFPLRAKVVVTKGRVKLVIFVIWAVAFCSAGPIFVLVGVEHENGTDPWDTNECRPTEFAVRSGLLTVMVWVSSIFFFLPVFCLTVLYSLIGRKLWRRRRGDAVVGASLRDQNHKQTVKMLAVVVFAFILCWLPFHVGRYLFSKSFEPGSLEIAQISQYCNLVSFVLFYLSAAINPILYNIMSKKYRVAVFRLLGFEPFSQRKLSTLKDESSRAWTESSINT
Experimental: as §1

168 GPCRs [16] = biological target: 168 GPCRs (Homo sapiens, UniProt O95136)
168 GPCRs (Homo sapiens, UniProt O95136), sequence (O95136 whole entry): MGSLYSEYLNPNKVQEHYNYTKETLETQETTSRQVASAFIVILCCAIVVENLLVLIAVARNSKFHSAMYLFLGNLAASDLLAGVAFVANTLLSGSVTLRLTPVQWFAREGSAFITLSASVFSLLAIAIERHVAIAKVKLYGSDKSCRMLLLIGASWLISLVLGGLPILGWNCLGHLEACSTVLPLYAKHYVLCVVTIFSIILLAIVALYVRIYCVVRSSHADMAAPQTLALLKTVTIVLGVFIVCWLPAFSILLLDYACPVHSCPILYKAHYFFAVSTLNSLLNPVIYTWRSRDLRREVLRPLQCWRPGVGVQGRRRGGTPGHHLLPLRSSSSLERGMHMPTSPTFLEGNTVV
Experimental: as §1

168 GPCRs (Homo sapiens, UniProt P41968), sequence (P41968 whole entry): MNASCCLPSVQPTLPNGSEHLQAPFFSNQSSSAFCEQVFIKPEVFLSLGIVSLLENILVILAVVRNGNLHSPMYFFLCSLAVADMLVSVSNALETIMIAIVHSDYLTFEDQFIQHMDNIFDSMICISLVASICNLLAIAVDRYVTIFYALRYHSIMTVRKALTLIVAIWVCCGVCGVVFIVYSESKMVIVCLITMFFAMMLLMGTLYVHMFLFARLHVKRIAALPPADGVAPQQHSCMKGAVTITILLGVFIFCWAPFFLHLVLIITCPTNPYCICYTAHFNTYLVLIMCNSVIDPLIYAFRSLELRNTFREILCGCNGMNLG

CNC(C)C(=O)c1ccc2c(c1)OCO2 (centres unmarked) [methylone, 3,4-methylenedioxy-N-methylcathinone]
activity at 10 µM (168 GPCRs [1]; Agonist mode, 10 uM): -1.8% | activity at 1 µM (168 GPCRs [1]; Agonist, 1 uM): -3.2% | activity at 10 µM (168 GPCRs [2]; Agonist mode, 10 uM): -0.1% | activity at 1 µM (168 GPCRs [2]; Agonist, 1 uM): 0.8% | activity at 10 µM (168 GPCRs [3]; FFAR1, Agonist mode, 10 uM): 4.5% | activity at 1 µM (168 GPCRs [3]; FFAR1, Agonist, 1 uM): 1.7% | activity at 10 µM (168 GPCRs [4]; Agonist mode, 10 uM): 0.2% | activity at 1 µM (168 GPCRs [4]; Agonist, 1 uM): 2.5% | activity at 1 µM (168 GPCRs [5]; 1 uM): -5.8% | activity at 10 µM (168 GPCRs [5]; 10 uM): -6.2% | activity at 10 µM (168 GPCRs [6]; P2RY2, Agonist mode, 10 uM): -2.7% | activity at 1 µM (168 GPCRs [6]; P2RY2, Agonist, 1 uM): -2.1% | activity at 10 µM (168 GPCRs [7]; P2RY4, Agonist mode, 10 uM): 4.1% | activity at 1 µM (168 GPCRs [7]; P2RY4, Agonist, 1 uM): -3.3% | activity at 10 µM (168 GPCRs [8]; GPR119, Agonist mode, 10 uM): -2.2% | activity at 1 µM (168 GPCRs [8]; GPR119, Agonist, 1 uM): -5.8% | activity at 10 µM (168 GPCRs [9]; Agonist mode, 10 uM): 0.7% | activity at 1 µM (168 GPCRs [9]; Agonist, 1 uM): -1.2% | activity at 1 µM (168 GPCRs [10]; 1 uM): -6.7% | activity at 10 µM (168 GPCRs [10]; 10 uM): -7.6% | activity at 10 µM (168 GPCRs [11]; Agonist mode, 10 uM): 0.7% | activity at 1 µM (168 GPCRs [11]; Agonist, 1 uM): 0.1% | activity at 10 µM (168 GPCRs [12]; Agonist mode, 10 uM): -3% | activity at 1 µM (168 GPCRs [12]; Agonist, 1 uM): -4.4% | activity at 10 µM (168 GPCRs [13]; CRHR2, Agonist mode, 10 uM): 0.9% | activity at 1 µM (168 GPCRs [13]; CRHR2, Agonist, 1 uM): 0.9% | activity at 10 µM (168 GPCRs [14]; MCHR1, Agonist mode, 10 uM): 3.1% | activity at 1 µM (168 GPCRs [14]; MCHR1, Agonist, 1 uM): 3.9% | activity at 10 µM (168 GPCRs [15]; Agonist mode, 10 uM): -7.2% | activity at 1 µM (168 GPCRs [15]; Agonist, 1 uM): -6.6% | activity at 10 µM (168 GPCRs [16]; EDG5, Agonist mode, 10 uM): 3.7% | activity at 1 µM (168 GPCRs [16]; EDG5, Agonist, 1 uM): -4.7%
